Read-outs that look alike come from different tables or passages of the source.
Columns and labels:
Colo205 cells = test: In vitro proliferation inhibition test of small molecule compound (CTG, 6 days), Example 3.2; format: cell-based; details: Homo sapiens, COLO 205, 144 h, read-out: Abs-IC50
Description: (§1) To detect the inhibitory activity of the drug compound against the proliferation of NCI-N87 and Colo205 tumor cells in vitro. Cells were treated with different concentrations of the compound in vitro, after 6 days of culture, the proliferation of the cells was detected using CTG (CellTiter-Glo® Luminescent Cell Viability Assay, Promega, Cat. No.: G7558) reagent, and the in vitro activity of the compound was evaluated according to the IC50 values. • 1. Cell culture: NCI-N87/Colo205 cells were cultured with 10% FBS RPMI-1640 medium. • 2. Preparation of cells: the NCI-N87/Colo205 cells in the logarithmic growth phase were taken and washed once with PBS, and 2-3 ml of trypsin was then added for digestion for 2-3 min. After the cells were completely digested, 10-15 ml of cell culture medium was added to elute the digested cells, the cells were centrifuged at 1000 rpm for 5 min, the supernatant was discarded, and then 10-20 ml of cell culture medium was added to resuspend the cells to prepare a single cell suspension. • 3. Cell plating: the NCI-N87/Colo205 single cell suspensions were mixed uniformly, and respectively adjusted to a live cell density of 6×10^4 cells/ml with a cell culture medium, and the density-adjusted cell suspensions were mixed uniformly, and added to 96-well cell culture plates at 50 ul/well. The culture plates were cultured in an incubator for 18 hours (37° C., 5% CO2). • 4. Preparation of compound: the compound was dissolved in DMSO to formulate a stock solution with an initial concentration of 10 mM.
(§2) A total of 8 concentrations of the small molecule compound were involved: 300, 100, 30, 10, 3, 1, 0.3, and 0.1 nM, respectively. • 5. Sample loading operation: different concentrations of the formulated samples to be tested were added to culture plates, with two replicate wells for each sample. The culture plates were incubated in an incubator for 6 days (37° C., 5% CO2). • 6. Color development operation: the 96-well cell culture plates were taken out, 50 ul of CTG reagent was added to each well, and the plates were incubated for 10 minutes at room temperature. • 7. Plate reading operation: the 96-well cell culture plates were taken out, and placed in a microplate reader, and the chemiluminescence was determined using the microplate reader.
(§3) Data analysis: the data was processed and analyzed using Microsoft Excel and Graphpad Prism 5.

NCI-N87 cells = test: as above; format: cell-based; details: Homo sapiens, read-out: Abs-IC50
Description: as §1, §2, §3

[1] = tested on: breast cancer cells JIMT-1 negative for B7H4 expression; test: In vitro proliferation inhibition (3D cell culture, CTG); format: cell-based; details: Homo sapiens, 144 h, JIMT-1, 3D culture, 6 days
Description: (§4) The cells in the logarithmic growth phase were collected and a cell culture medium was added to resuspend the cells to prepare a single cell suspension. The single cell suspension was adjusted to a live cell density of […], and 3.5 mL of the cell suspension was mixed uniformly with 6.5 mL of 1% methylcellulose, avoiding bubbles as much as possible. 90 μL of the cell suspension was added to each well of 96-well plates, and the plates were cultured overnight in an incubator with 5% CO2 at 37° C. On the second day of the experiment, the test article was diluted with a complete medium to obtain a 10× solution, 10 μL of the test article solution (the highest final concentration of 100 nM, 9 concentrations, 3-fold dilution) was added to each well, the complete medium was used as a blank control, and 3 replicate wells were set up; and the plates were incubated in the incubator at 37° C. for another 6 days. After the incubation was completed, the cell culture plates were taken out and equilibrated to room temperature, and 100 μL of CTG detection reagent (Promega, Cat #: G7573) was added to each well. The plates were shaken and mixed uniformly, then left to stand in the dark for 10 minutes, and then placed at room temperature for 30 minutes to stabilize the luminescence signal. Luminescence was read using EnVision. Using GraphPad Prism software, a sigmoidal dose-response curve was plotted by using a non-linear regression model, and the IC50 value was calculated. Cell viability calculation

[2] = tested on: endometrial carcinoma cells RL95-2 with low expression of B7H4; test: as above; format: cell-based; details: Homo sapiens, 144 h, RL95-2, 3D culture, 6 days
Description: as §4

[3] = tested on: human breast cancer cells MX-1 with high expression of B7H4; test: as above; format: cell-based; details: 144 h, MX-1, 3D culture, 6 days
Description: as §4

human B7H4 = target: T1, human B7H4 (human, UniProt Q7Z7D3 25-282); test: cell-based or functional assay
T1 sequence (looked up): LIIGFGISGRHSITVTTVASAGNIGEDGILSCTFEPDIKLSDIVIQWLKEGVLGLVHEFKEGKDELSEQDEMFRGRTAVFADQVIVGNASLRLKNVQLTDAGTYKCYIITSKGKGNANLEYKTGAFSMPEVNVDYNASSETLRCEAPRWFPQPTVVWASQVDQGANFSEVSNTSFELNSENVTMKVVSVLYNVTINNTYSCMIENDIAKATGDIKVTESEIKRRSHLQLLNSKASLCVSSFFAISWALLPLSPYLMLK

[4] = highest concentration 100 nM, read-out: Max inh.

CC[C@@]1(O)C(=O)OCc2c1cc1n(c2=O)Cc2c-1nc1cc(F)c(C)c3c1c2[C@@H](NC(=O)C[C@H](C)O)CC3 [P-III-30]
IC50 (Colo205 cells; Colo205, 6 days, CTG): 103 nM | IC50 (NCI-N87 cells; 144 h, NCI-N87, 6 days, CTG): 6.5 nM | IC50 [1]: 24.3 nM | inhibition at up to 0.1 µM [1, 4]: 71% | IC50 [2]: 0.843 nM | inhibition at up to 0.1 µM [2, 4]: 95.1% | IC50 [3]: 1.77 nM | inhibition at up to 0.1 µM [3, 4]: 84.5%

CC[C@@]1(O)C(=O)OCc2c1cc1n(c2=O)Cc2c-1nc1cc(F)c(C)c3c1c2[C@@H](NC(=O)CCN)CC3 [Reference example 1, reference compound]
IC50 (Colo205 cells): > 1000 nM | IC50 (NCI-N87 cells; NCI-N87, 144 h): > 300 nM

B1: antibody-drug conjugate DB1001-X1 (antibody, DAR 3.89, V domains shown)
VH: QVQLVESGGGVVQPGRSLRLSCAASGFTFRSFGMHWVRQAPGKGLEWVAVISYDASNEYYADSVKGRFIISRDNSKDTLYLQMNSLRAGDTAVYYCAKGGALRWYFAYWGQGTLVTVSS
VL: EIVMTQSPATLSVSPGERATLSCRASQSISSNLGWYQQKPGQAPRLLIYGASTRATGIPARFSGSGSGTEFTLTISSLQSEDFAVYYCQQYRSWPPLTFGGGTKVEIKR
modifications: linker-cytotoxin X1 (payload P-II-3) coupled after TCEP reduction of the antibody; drug-to-antibody ratio (DAR) of 3.89; conjugation residues not stated
IC50 (nM), in vitro proliferation inhibition of MDA-MB-468 cells (CTG, 7 days) (human B7H4): 30.3 nM

From patent publication US20250032630A1, “B7H4 ANTIBODY-DRUG CONJUGATE AND USE THEREOF” (Duality Biologics (Suzhou) Co., Ltd., priority 2022, published 2025)
